Experimental data: US20200085839A1, “COMBINATION OF IMMUNOTHERAPEUTICS AND BISFLUOROALKYL-1,4-BENZODIAZEPINONE COMPOUNDS FOR TREATING LYMPHOMAS” (Ayala Pharmaceuticals Inc., priority 2018, published 2020)
Entries after “also recorded” stand apart in the source; their conditions may differ.

Key:
[1] = system: U266 human myeloma cell line cells in NSG mice; test: Anti-tumor activity of BCMA-targeted CAR-T cells and Compound (1) in vivo; settings: combination with 1×10^6 BCMA targeted CAR-T cells IV on day 4; imaging day 11
Procedure: BCMA targeted CAR-T cells mediate an anti-myeloma immune response. 1×10^7 U266 human myeloma cell line cells are injected IV into NSG mice on day 0. On day 4, a) 1×10^6 BCMA targeted second generation CAR-T cells, Compound (1) or both are injected IV.

[2] = system: 018Z cells (B-ALL); test: Cell surface BCMA by FACS; format: cell-based, human
Procedure: (§1) Cells were seeded at 1×10^4 cells/well in a total volume of 250 μl into a 96-well plate. The cells were cultured in RPMI supplemented with 10% FCS.
(§2) The tested compounds (Compound 1 and Compound 22) were added to the cell cultures at concentrations of: 0, 10, 1, 0.5, 0.1, 0.01, 0.001 μM ([…], 10 nM, 100 nM, 500 nM, 1000 nM, and 10000 nM). Following 24 hours of incubation at 37° C., the cells were collected and stained with anti-BCMA antibody and immediately analyzed by FACS.
(§3) […] cell lines, comprising 9 subtypes of lymphomas (see Table 1), were seeded at 1×10^5 cells/well in a total volume of 250 μl into a 96-well plate. The cells were cultured in RPMI medium supplemented with 10% FCS. Compound (22) was added to the cell cultures at a concentration of 10 μM, 1 μM, 100 nM, 10 nM, 1 nM, 100 pM, 10 pM, 1 pM, and 100 fM, and cell lines (8 from Hadassah Medical Center, 31 from Eurofins) were incubated at 37° C. for 24 hours with Compound (22). Following incubation, the cells were collected and BCMA levels were evaluated on the cell surface for cell-bound BCMA. Cells were stained with an anti-BCMA antibody (PE anti-human 19F2 BCMA, Biolegend), and cell surface BCMA levels were determined by FACS analysis (Mean Fluorescence Intensity. Soluble BCMA levels were analyzed by ELISA (Human BCMA/TNFRSF17 DuoSet kit: R&D Systems).

[3] = system: RC cells (DLBCL); test: Cell surface BCMA by FACS; format: cell-based, human
Procedure: as §1, §2, §3

[4] = system: REH cells (B-ALL); test: Cell surface BCMA by FACS; format: cell-based, human
Procedure: as §1, §2, §3

[5] = system: RS411 cells (B-ALL); test: Cell surface BCMA by FACS; format: cell-based, human
Procedure: as §1, §2, §3

[6] = system: SP49 cells (Mantle Cell Lymphoma); test: Cell surface BCMA by FACS; format: cell-based, human
Procedure: as §1, §2, §3

[7] = system: SUDHL-4 (Haddasah) cells (DLBCL); test: Cell surface BCMA by FACS; format: cell-based, human
Procedure: as §1, §2, §3

[8] = system: SUDHL-6 cells (DLBCL); test: Cell surface BCMA by FACS; format: cell-based, human
Procedure: as §1, §2, §3

[9] = system: Toledo cells (DLBCL); test: Cell surface BCMA by FACS; format: cell-based, human
Procedure: as §1, §2, §3

[10] = system: BC-1 cells (B-cell Lymphoma); test: Soluble (shed) BCMA by ELISA; format: cell-based, human
Procedure: as §3

[11] = system: BCP-1 cells (B-cell Lymphoma); test: Soluble (shed) BCMA by ELISA; format: cell-based, human
Procedure: as §3

[12] = system: CA46 cells (Burkitt's Lymphoma); test: Soluble (shed) BCMA by ELISA; format: cell-based, human
Procedure: as §3

[13] = system: DB cells (DLBCL); test: Soluble (shed) BCMA by ELISA; format: cell-based, human
Procedure: as §3

[14] = system: DOHH-2 cells (DLBCL); test: Soluble (shed) BCMA by ELISA; format: cell-based, human
Procedure: as §3

[15] = system: Daudi cells (Burkitt's Lymphoma); test: Soluble (shed) BCMA by ELISA; format: cell-based, human
Procedure: as §3

[16] = system: GA-10 cells (Burkitt's Lymphoma); test: Soluble (shed) BCMA by ELISA; format: cell-based, human
Procedure: as §3

[17] = system: H9 cells (Cutaneous T-cell Lymphoma); test: Soluble (shed) BCMA by ELISA; format: cell-based, human
Procedure: as §3

[18] = system: HT cells (DLBCL); test: Soluble (shed) BCMA by ELISA; format: cell-based, human
Procedure: as §3

[19] = system: SUDHL-8 cells (DLBCL); test: Soluble (shed) BCMA by ELISA; format: cell-based, human
Procedure: as §3

[20] = system: […] cell lines, comprising 9 subtypes of lymphomas; test: Soluble BCMA by ELISA, lymphoma cell line panel; format: cell-based, human
Procedure: as §3

[21] = Homo sapiens, read-out: Shed BCMA (pg/ml) EC50

Q: How did the “anti-tumor response, imaging of tumors” value [1] turn out when CN1C(=O)[C@@H](NC(=O)[C@H](CCC(F)(F)F)[C@H](CCC(F)(F)F)C(N)=O)N=C(c2ccccc2)c2ccccc21 [Compound 1, (2R,3S)—N-((3S)-1-methyl-2-oxo-5-phenyl-2,3-dihydro-1H-1,4-benzodiazepin-3-yl)-2,3-bis(3,3,3-trifluoropropyl)succinamide] was run?
A: Its value is “improved anti-tumor response compared to either BCMA targeted CAR-T or Compound (1) treatment alone”.

Q: Which results are given for Cc1cccc2c1NC(=O)[C@@H](NC(=O)[C@H](CCC(F)(F)F)[C@H](CCC(F)(F)F)C(N)=O)N=C2c1cccc(F)c1 [Compound (22), (2R,3S)—N-((3S)-5-(3-fluorophenyl)-9-methyl-2-oxo-2,3-dihydro-1H-1,4-benzodiazepin-3-yl)-2,3-bis(3,3,3-trifluoropropyl)succinamide]?
A: mBCMA (MFI) Fold Increase [2]: 0.9 fold; BCMA (Mean Fluorescence Intensity) 1 nM Compound (22) ([2]; 1 nM, 24 h): 4121; BCMA (Mean Fluorescence Intensity) 100 nM Compound (22) ([2]; 100 nM, 24 h): 4500; mBCMA (MFI) Fold Increase [3]: 2.9 fold; BCMA (Mean Fluorescence Intensity) 1 nM Compound (22) ([3]; 1 nM, 24 h): 12970; BCMA (Mean Fluorescence Intensity) 100 nM Compound (22) ([3]; 100 nM, 24 h): 15001; mBCMA (MFI) Fold Increase [4]: 0.9 fold; BCMA (Mean Fluorescence Intensity) 1 nM Compound (22) ([4]; 1 nM, 24 h): 5559; BCMA (Mean Fluorescence Intensity) 100 nM Compound (22) ([4]; 100 nM, 24 h): 6463; mBCMA (MFI) Fold Increase [5]: 0.9 fold; BCMA (Mean Fluorescence Intensity) 1 nM Compound (22) ([5]; 1 nM, 24 h): 2273; BCMA (Mean Fluorescence Intensity) 100 nM Compound (22) ([5]; 100 nM, 24 h): 2518; mBCMA (MFI) Fold Increase [6]: 3.3 fold; BCMA (Mean Fluorescence Intensity) 1 nM Compound (22) ([6]; 1 nM, 24 h): 12697; BCMA (Mean Fluorescence Intensity) 100 nM Compound (22) ([6]; 100 nM, 24 h): 17462; mBCMA (MFI) Fold Increase ([7]; SUDHL-4 (Haddasah)): 2.5 fold; BCMA (Mean Fluorescence Intensity) 1 nM Compound (22) ([7]; SUDHL-4, 1 nM, 24 h): 16100; BCMA (Mean Fluorescence Intensity) 100 nM Compound (22) ([7]; SUDHL-4, 100 nM, 24 h): 23438; mBCMA (MFI) Fold Increase [8]: 2.6 fold; BCMA (Mean Fluorescence Intensity) 1 nM Compound (22) ([8]; 1 nM, 24 h): 22915; BCMA (Mean Fluorescence Intensity) 100 nM Compound (22) ([8]; 100 nM, 24 h): 24812; mBCMA (MFI) Fold Increase [9]: 3.2 fold; BCMA (Mean Fluorescence Intensity) 1 nM Compound (22) ([9]; 1 nM, 24 h): 7541; BCMA (Mean Fluorescence Intensity) 100 nM Compound (22) ([9]; 100 nM, 24 h): 9580; Shed BCMA (pg/ml) % Reduction [10]: 30%; soluble BCMA 1 nM Compound (22) ([10]; 1 nM, 24 h): >2000; soluble BCMA 10 nM Compound (22) ([10]; 10 nM, 24 h): 1841.6; soluble BCMA 100 nM Compound (22) ([10]; 100 nM, 24 h): 878.6; EC50 ([10]; Homo sapiens, BC1, read-out: Shed BCMA (pg/ml) EC50): 84 nM; Shed BCMA (pg/ml) % Reduction [11]: 94%; soluble BCMA 1 nM Compound (22) ([11]; 1 nM, 24 h): 1665.7; soluble BCMA 10 nM Compound (22) ([11]; 10 nM, 24 h): 1610 pg/mL; soluble BCMA 100 nM Compound (22) ([11]; 100 nM, 24 h): 460.6; soluble BCMA ([11]; FIG. 6B): decreased soluble BCMA; EC50 [11, 21]: 48 nM; Shed BCMA (pg/ml) % Reduction ([12]; CA46): 90%; soluble BCMA 1 nM Compound (22) ([12]; CA-46, 1 nM, 24 h): 1775.4; soluble BCMA 10 nM Compound (22) ([12]; CA-46, 10 nM, 24 h): 330; soluble BCMA 100 nM Compound (22) ([12]; CA-46, 100 nM, 24 h): 173.2; EC50 ([12]; Homo sapiens, CA46, read-out: Shed BCMA (pg/ml) EC50): 7.4 nM; Shed BCMA (pg/ml) % Reduction [13]: 100%; soluble BCMA 1 nM Compound (22) ([13]; 1 nM, 24 h): 270.5; soluble BCMA 10 nM Compound (22) ([13]; 10 nM, 24 h): 40.5; soluble BCMA ([13]; FIG. 9B): decreased soluble BCMA; EC50 [13, 21]: 1 nM; Shed BCMA (pg/ml) % Reduction [14]: 93%; soluble BCMA 1 nM Compound (22) ([14]; 1 nM, 24 h): 1272.1; soluble BCMA 10 nM Compound (22) ([14]; 10 nM, 24 h): 136; soluble BCMA 100 nM Compound (22) ([14]; 100 nM, 24 h): 98.4; EC50 [14, 21]: 2.2 nM; Shed BCMA (pg/ml) % Reduction [15]: 100%; soluble BCMA 1 nM Compound (22) ([15]; 1 nM, 24 h): 162.6; soluble BCMA 10 nM Compound (22) ([15]; 10 nM, 24 h): 36.8; soluble BCMA ([15]; FIG. 7B): decreased soluble BCMA; EC50 [15, 21]: 0.5 nM; Shed BCMA (pg/ml) % Reduction [16]: 83%; soluble BCMA 1 nM Compound (22) ([16]; 1 nM, 24 h): >2000; soluble BCMA 10 nM Compound (22) ([16]; 10 nM, 24 h): 800.8; soluble BCMA 100 nM Compound (22) ([16]; 100 nM, 24 h): 398.1; EC50 [16, 21]: 7.4 nM; Shed BCMA (pg/ml) % Reduction [17]: BLQ; EC50 [17, 21]: > 10000 nM; Shed BCMA (pg/ml) % Reduction [18]: 98%; soluble BCMA 1 nM Compound (22) ([18]; 1 nM, 24 h): 389.4; soluble BCMA 10 nM Compound (22) ([18]; 10 nM, 24 h): 99.4; soluble BCMA 100 nM Compound (22) ([18]; 100 nM, 24 h): 38; EC50 [18, 21]: 1 nM; Shed BCMA (pg/ml) % Reduction [19]: 100%; EC50 ([19]; Homo sapiens, SU-DHL-8, read-out: Shed BCMA (pg/ml) EC50): 0.5 nM; soluble BCMA ([20]; cell lines derived from Mantle Cell Lymphoma, DLBCL, Burkitt's Lymphoma, B-cell Lymphoma, 24 h): reduced soluble BCMA; shedding ([20]; certain lymphomas): abrogates shedding; BCMA shedding ([20]; lymphoma cells): decreases BCMA shedding from some lymphomas; also recorded: inhibits BCMA shedding; soluble BCMA ([20]; some Lymphoma/Leukemia cell lines): Compound (22) decreases soluble BCMA in some Lymphoma/Leukemia cell lines
